Measured values taken from paper PMC6978697 (The Journal of Pharmacology and Experimental Therapeutics, 2020).

Biological target: T1, HA-DOPr (HA-tagged δ opioid receptor) (Homo sapiens, UniProt P41143)
T1 construct: gene OPRD1; full-length wild type, HA-tagged
Assay: [3H]-diprenorphine competition, HEK293 membranes
Assay type: binding
Settings: read-out: [^3H]-Diprenorphine / pKi (converted)
Text: [3H]-diprenorphine competition, HEK293 membranes on HA-DOPr (HA-tagged δ opioid receptor)

T1 sequence (P41143 whole entry, looked up): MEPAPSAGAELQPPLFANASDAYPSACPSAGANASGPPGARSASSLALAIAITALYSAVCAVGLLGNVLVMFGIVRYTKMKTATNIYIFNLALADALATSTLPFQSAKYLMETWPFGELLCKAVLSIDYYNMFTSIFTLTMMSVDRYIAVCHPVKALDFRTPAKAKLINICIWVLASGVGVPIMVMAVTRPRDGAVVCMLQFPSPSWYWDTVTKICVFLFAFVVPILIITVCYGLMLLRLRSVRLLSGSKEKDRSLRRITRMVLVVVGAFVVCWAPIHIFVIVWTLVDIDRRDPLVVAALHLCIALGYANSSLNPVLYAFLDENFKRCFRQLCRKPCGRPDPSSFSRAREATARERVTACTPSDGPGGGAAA

In the case of `CN(C)C(=O)c1ccc(C(=C2CCN(Cc3cncs3)CC2)c2cccc(C(N)=O)c2)cc1` [PN6047, 3-[[4-(dimethylcarbamoyl)phenyl]-[1-(thiazol-5-ylmethyl)-4-piperidylidene]methyl]benzamide], the Ki was 0.0562 µM.
